Assay results published in US20120214802A1, “PYRROLIDINE COMPOUNDS WHICH INHIBIT BETA-SECRETASE ACTIVITY AND METHODS OF USE THEREOF” (priority 2009, published 2012).
“And” between values parts separate entries of the source, which are not always exact repeats. Equal values may be shown once. Read-outs that look alike come from different tables or passages of the source.

Columns and labels:
memapsin 2 [1] = target: memapsin 2 (Homo sapiens, UniProt P56817); test: Inhibition of memapsin 2 beta-secretase activity (fluorogenic substrate FS-2); assay type: biochemical; details: pH 4, 37° C., read-out: M2 Ki
Outline: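 Memapsin 2 pre-incubated with compound for 20 min at pH 4, 37° C. Reaction started with fluorogenic substrate FS-2, […], derived from Swedish-variant APP beta-secretase site; inhibition measured from fluorescence.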

[2] = Hepatic intrinsic clearance in liver microsomes; assay type: in vitro ADME; details: human, pH 7.4, human liver microsomes
Experimental: To 500 μl of 200 mM Na^+K^+phosphate buffer (pH 7.4), 100 μl of 1 mM EDTA solution was added followed by 100 μl of 2 mg protein/ml human liver microsomes. A 10 μl aliquot of test compound (20 mM stock in 50% acetonitrile) was diluted further with 40 μl of H2O (total assay volume […]. Assay mixture is incubated for 5 minutes at 37° C. The assay was initiated by addition of 250 μl of 4 mM NADPH solution. Incubation was continued at 37° C. Separate reaction mixtures were prepared for 0, 5, 10, 20, and 30 min durations. Individual reactions were halted by addition of 150 μl of 100% acetonitrile. Internal standard (10 μl of 100 ng/ml diazepam solution) was added. Concentration of the test compound in each separate reaction was measured using LC/MS/MS and a standard curve for the test compound according to standard procedures.
The hepatic intrinsic clearance in liver microsome was determined by the following procedure described by Davies and Morris (Davies, B. and Morris, T. (19930) Physiological parameters in laboratory animals and humans. Pharm Res. 10:1093-1095) detailing the relationship of in vitro clearance to physiological parameters in animals and human subjects.
The amount of compound remaining at each time point was expressed relative to the amount present in the initial (0 min) incubation. The relationship of relative amount vs. time was used to determine the half life of the compound in the microsome assay. The concentration independent rate constant, k1, was determined from rectangular hyperbolic fit:
where T is time (in minutes), from the relationship of relative amount vs. time. Alternatively, k1 was determined from a transform of the equation, where
Conversion to in vivo clearance was obtained from the relation (Davies and Morris, 1993):
where v=velocity of metabolism, [S] is the concentration of the compound, and volumes are expressed in mL.

memapsin 2 [3] = target: T1, memapsin 2 (Cricetulus griseus, UniProt G3IAK4); test: Cellular Aβ IC50 determination (Aβ40 sandwich ELISA); assay type: cell-based, Chinese hamster; details: CHO cells over-expressing human APP695 with London and Swedish mutations, 24 h, read-out: M2 IC50
T1 construct: endogenous in cells; host or cells: Chinese hamster ovary cells over-expressing human APP695 (London + Swedish)
Outline: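 CHO cells overexpressing human APP695 (London and Swedish mutations) treated 48 h post-seeding with serially diluted compounds (top near 4 μM, 0.4% DMSO), 24 h at 37° C, 5% CO2. Medium Aβ40 measured by sandwich ELISA; levels relative to control fitted to 4-parameter IC50 model.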

CYP3A4 = target: T2, CYP3A4 (Homo sapiens, UniProt P08684); test: CYP3A4 inhibition (midazolam metabolism in human liver microsomes); assay type: in vitro ADME; details: substrate midazolam
T2 construct: host or cells: human liver microsomes
Experimental: To evaluate the drug-drug interaction potential for compounds, the potency to inhibit the major metabolic cytochrome CYP450 isoform 3A4 was assessed. The inhibition constant Ki was determined for inhibition of the metabolism of midazolam, a CYP3A4 substrate.
CYP3A4 Ki assays were performed following a recently published protocol with slight modifications (Di, L., Kerns, E. H., Li, S. Q., and Carter, G. T. (2007) Comparison of cytochrome P450 inhibition assays for drug discovery using human liver microsomes with LC-MS, rhCYP450 isozymes with fluorescence, and double cocktail with LC-MS. International Journal of Pharmaceutics 335: 1-11). The P450 inhibition assay was performed in 96-well plates at 37.2° C. in a shaking incubator. The compounds were diluted from 5 mM stocks in 100% DMSO and incubated at seven final concentrations from 0.078 to 10 μM (0.1% DMSO in each final incubation), with human liver microsomes (HLM) at a final protein concentration of 0.1 mg/mL protein and a substrate concentration ranging from 1.25 to 10 μM.
The assay was standardized for both phosphate buffer (100 mM, pH 7.4) and the NADPH regenerating system (MgCl2, 3.3 mM; G6P, 3.3 mM; G6PD, 1 U/ml; NADP+, 1.3 mM). Eight replicate control samples (0.1% DMSO, no compound) were prepared. Assays (200 μL) were set up by mixing HLM+substrate stock, 10 μL of test article in 2% DMSO, and the substrate before initiating the reaction with the addition of the regenerating system mixture. Reactions were quenched following incubation for 20, 30 and 40 minutes as described following.
After incubation for the specified time in a humidified shaking incubator, 20 μL of the reaction mixture was removed and the reactions were terminated by adding 200 μL of cold acetonitrile. Samples were centrifuged at 1000×g for 15 minutes in Solvinert filter plate. The receptor plate was dried via speed vacuum at 40° C. The sample was reconstituted with a reconstitution buffer composed of 10% acetonitrile, 10% DMSO, 80% H2O with an internal standard added at a concentration of 100 ng/ml. MS-Analysis was completed using LC-MS/MS. Formation of 1′-hydroxymidazolam was measured by monitoring a specific SRM (342>203) transition for the CYP3A4 metabolite.
Data were expressed as the relative quantity of midazolam metabolite relative to control incubations. Initial velocities were obtained by multiplying the relative quantity by the initial substrate concentration and dividing by the incubation duration. Data were transformed to inverse of inivital velocity and expressed vs. inhibitor concentration [I] for determination of Ki by the Dixon method (Dixon, M. (1953) Biochemical Journal 55: 170-171) using where intercept [I]=−Ki was determined at multiple substrate concentrations.

[4] = in vitro clearance, read-out: HLM CL

T2 sequence (P08684 whole entry): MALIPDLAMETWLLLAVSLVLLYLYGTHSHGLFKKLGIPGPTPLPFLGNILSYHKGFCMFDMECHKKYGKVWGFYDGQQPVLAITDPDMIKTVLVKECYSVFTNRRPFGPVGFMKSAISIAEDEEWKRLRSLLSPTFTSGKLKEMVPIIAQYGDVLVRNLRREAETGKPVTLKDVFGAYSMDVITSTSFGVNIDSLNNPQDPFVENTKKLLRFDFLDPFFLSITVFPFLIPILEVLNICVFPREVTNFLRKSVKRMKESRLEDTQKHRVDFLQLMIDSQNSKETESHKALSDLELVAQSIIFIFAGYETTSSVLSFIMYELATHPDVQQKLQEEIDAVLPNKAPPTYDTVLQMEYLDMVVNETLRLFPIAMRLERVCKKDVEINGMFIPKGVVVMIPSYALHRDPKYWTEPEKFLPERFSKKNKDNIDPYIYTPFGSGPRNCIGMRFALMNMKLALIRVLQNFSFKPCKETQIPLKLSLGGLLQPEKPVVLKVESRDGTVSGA
T1 sequence (G3IAK4 22-501): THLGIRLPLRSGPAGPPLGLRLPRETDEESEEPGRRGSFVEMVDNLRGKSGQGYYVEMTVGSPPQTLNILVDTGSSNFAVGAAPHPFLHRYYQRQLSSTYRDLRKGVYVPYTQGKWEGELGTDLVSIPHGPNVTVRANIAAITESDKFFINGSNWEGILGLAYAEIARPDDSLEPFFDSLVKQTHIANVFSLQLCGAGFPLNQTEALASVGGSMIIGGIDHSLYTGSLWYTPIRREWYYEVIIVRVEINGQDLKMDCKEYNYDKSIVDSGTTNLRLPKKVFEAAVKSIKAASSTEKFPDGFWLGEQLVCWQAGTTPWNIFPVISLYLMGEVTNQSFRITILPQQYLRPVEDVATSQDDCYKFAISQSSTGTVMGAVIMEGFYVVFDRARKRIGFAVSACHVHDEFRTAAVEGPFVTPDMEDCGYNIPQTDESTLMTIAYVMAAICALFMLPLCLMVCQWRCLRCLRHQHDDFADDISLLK
Sequence of memapsin 2 (Homo sapiens, UniProt P56817) (P56817 46-501): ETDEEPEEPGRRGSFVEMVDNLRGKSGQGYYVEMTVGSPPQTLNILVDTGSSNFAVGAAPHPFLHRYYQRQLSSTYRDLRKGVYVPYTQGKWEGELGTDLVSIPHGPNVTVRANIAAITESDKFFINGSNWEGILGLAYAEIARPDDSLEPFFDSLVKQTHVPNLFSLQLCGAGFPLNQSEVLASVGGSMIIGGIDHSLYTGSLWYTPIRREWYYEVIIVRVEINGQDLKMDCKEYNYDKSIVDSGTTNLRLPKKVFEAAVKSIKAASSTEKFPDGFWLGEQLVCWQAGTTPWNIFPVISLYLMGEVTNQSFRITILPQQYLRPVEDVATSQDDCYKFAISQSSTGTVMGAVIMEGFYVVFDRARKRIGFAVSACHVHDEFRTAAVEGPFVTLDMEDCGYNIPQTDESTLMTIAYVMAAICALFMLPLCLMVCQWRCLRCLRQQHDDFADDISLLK

| Structure (SMILES) | Ki (memapsin 2 [1]) | CLint scaled at 200 μM [2, 4] [mL/min/kg] | IC50 (memapsin 2 [3]) [nM] | Ki (CYP3A4; read-out: CYP 3A4Ki) [nM] | CLint scaled at 200 μM ([2]; read-out: hepatic intrinsic clearance in liver microsomes (HLMCL)) [mL/min/kg] | Ki (CYP3A4) [nM] |
| --- | --- | --- | --- | --- | --- | --- |
| Cc1cc(C(=O)N[C@@H](Cc2ccccc2)[C@H](O)[C@H]2CCCN2)cc(C(=O)N2CCC[C@@H]2c2nc(C)co2)c1 [1-8, N-((1R,2S)-1-hydroxy-3-phenyl-1-((R)-pyrrolidin-2-yl)propan-2-yl)-3-methyl-5-((R)-2-(4-methyloxazol-2-yl)pyrrolidine-1-carbonyl)benzamide] | 250 to 750 nM | < 400 | > 1000 | > 10000 | – | – |
| Cc1csc(CN(C)C(=O)c2cccc(C(=O)N[C@@H](Cc3ccccc3)[C@H](O)[C@H]3C[C@@H](OCc4ccccc4)CN3)c2)n1 [1-9, N1-((1R,2S)-1-((2R,4R)-4-(benzyloxy)pyrrolidin-2-yl)-1-hydroxy-3-phenylpropan-2-yl)-N3-methyl-N3-((4-methylthiazol-2-yl)methyl)isophthalamide] | < 250 nM | < 400 | < 500 | 1000 to 5000 | – | – |
| C[C@@H](NC(=O)c1cc(C(=O)N[C@@H](Cc2ccccc2)[C@H](O)[C@H]2CCCN2)cc(N(C)S(C)(=O)=O)c1)c1ccccc1 [1-11, N1-((1R,2S)-1-hydroxy-3-phenyl-1-((R)-pyrrolidin-2-yl)propan-2-yl)-5-(N-methylmethylsulfonamido)-N3-((R)-1-phenylethyl)isophthalamide] | < 250 nM | < 400 | < 500 | > 10000 | – | – |
| Cc1coc([C@H]2CCCN2C(=O)c2cccc(C(=O)N[C@@H](Cc3ccccc3)[C@H](O)[C@H]3C[C@@H](OCc4ccccc4)CN3)c2)n1 [1-18, N-((1R,2S)-1-((2R,4R)-4-(benzyloxy)pyrrolidin-2-yl)-1-hydroxy-3-phenylpropan-2-yl)-3-((R)-2-(4-methyloxazol-2-yl)pyrrolidine-1-carbonyl)benzamide] | ~50.4 nM and < 250 nM and 50.4 nM | < 400 | < 500 | > 10000 | ~337 | 11500 |
| Cc1csc([C@H]2CCCN2C(=O)c2cc(C(=O)N[C@@H](Cc3ccccc3)[C@H](O)[C@H]3CCCN3)cc(N3CCCC3=O)c2)n1 [1-39, N-((1R,2S)-1-hydroxy-3-phenyl-1-((R)-pyrrolidin-2-yl)propan-2-yl)-3-((R)-2-(4-methylthiazol-2-yl)pyrrolidine-1-carbonyl)-5-(2-oxopyrrolidin-1-yl)benzamide] | < 250 nM | < 400 | < 500 | – | – | – |
| Cc1csc([C@H]2CCCN2C(=O)c2cncc(C(=O)N[C@@H](Cc3ccccc3)[C@H](O)CNCc3cc(Cl)nc(N(C)C)c3)c2)n1 [2-1, N-((2S,3R)-4-((2-chloro-6-(dimethylamino)pyridin-4-yl)methylamino)-3-hydroxy-1-phenylbutan-2-yl)-5-((R)-2-(4-methylthiazol-2-yl)pyrrolidine-1-carbonyl)nicotinamide, reference compound] | < 250 nM | > 700 | < 500 | – | – | – |
| C=C(C)c1cccc(CNC[C@@H](O)[C@H](Cc2ccccc2)NC(=O)c2cccc(C(=O)N3CCC[C@@H]3c3nc(C)co3)c2)c1 [2-6, N-((2S,3R)-3-hydroxy-1-phenyl-4-(3-(prop-1-en-2-yl)benzylamino)butan-2-yl)-3-((R)-2-(4-methyloxazol-2-yl)pyrrolidine-1-carbonyl)benzamide, reference compound] | < 250 nM | > 700 | < 500 | – | – | – |

Next, values leading:

| Ki (memapsin 2 [1]) | CLint scaled at 200 μM [2, 4] [mL/min/kg] | IC50 (memapsin 2 [3]) [nM] | Ki (CYP3A4; read-out: CYP 3A4Ki) [nM] | CLint scaled at 200 μM ([2]; read-out: hepatic intrinsic clearance in liver microsomes (HLMCL)) [mL/min/kg] | Ki (CYP3A4) [nM] | Structure (SMILES) |
| --- | --- | --- | --- | --- | --- | --- |
| < 250 nM | < 400 | > 1000 | – | – | – | Cc1csc(CN(C)C(=O)c2cc(C(=O)N[C@@H](Cc3ccccc3)[C@H](O)[C@H]3CCCN3)cc(-c3cnco3)c2)n1 [1-12, N1-((1R,2S)-1-hydroxy-3-phenyl-1-((R)-pyrrolidin-2-yl)propan-2-yl)-N3-methyl-N3-((4-methylthiazol-2-yl)methyl)-5-(oxazol-5-yl)isophthalamide] |
| < 250 nM | < 400 | 500 to 1000 | 5000 to 10000 | – | – | Cc1csc(CN(C)C(=O)c2cc(C(=O)N[C@@H](Cc3ccccc3)[C@H](O)[C@H]3CCCN3)cc(-n3cccc3)c2)n1 [1-13, N1-((1R,2S)-1-hydroxy-3-phenyl-1-((R)-pyrrolidin-2-yl)propan-2-yl)-N3-methyl-N3-((4-methylthiazol-2-yl)methyl)-5-(1H-pyrrol-1-yl)isophthalamide] |
| < 250 nM | < 400 | < 500 | 1000 to 5000 | – | – | Cc1csc([C@H]2CCCN2C(=O)c2cc(C(=O)N[C@@H](Cc3ccccc3)[C@H](O)[C@H]3CCCN3)cc(C(F)F)c2)n1 [1-14, 3-(difluoromethyl)-N-((1R,2S)-1-hydroxy-3-phenyl-1-((R)-pyrrolidin-2-yl)propan-2-yl)-5-((R)-2-(4-methylthiazol-2-yl)pyrrolidine-1-carbonyl)benzamide] |
| < 250 nM | < 400 | < 500 | 5000 to 10000 | – | – | Cc1csc(CN(C)C(=O)c2cc(C(=O)N[C@@H](Cc3ccccc3)[C@H](O)[C@H]3CCCN3)cc(-c3ncco3)c2)n1 [1-15, N1-((1R,2S)-1-hydroxy-3-phenyl-1-((R)-pyrrolidin-2-yl)propan-2-yl)-N3-methyl-N3-((4-methylthiazol-2-yl)methyl)-5-(oxazol-2-yl)isophthalamide] |
| < 250 nM | < 400 | 500 to 1000 | 1000 to 5000 | – | – | Cc1csc([C@H]2CCCN2C(=O)c2cc(C(=O)N[C@@H](Cc3ccccc3)[C@H](O)[C@H]3CCCN3)cc(-n3cccc3)c2)n1 [1-16, N-((1R,2S)-1-hydroxy-3-phenyl-1-((R)-pyrrolidin-2-yl)propan-2-yl)-3-((R)-2-(4-methylthiazol-2-yl)pyrrolidine-1-carbonyl)-5-(1H-pyrrol-1-yl)benzamide] |
| < 250 nM | < 400 | < 500 | > 10000 | – | – | Cc1coc([C@H]2CCCN2C(=O)c2cc(C(=O)N[C@@H](Cc3ccccc3)[C@H](O)[C@H]3CCCN3)cc(-c3ncco3)c2)n1 [1-17, N-((1R,2S)-1-hydroxy-3-phenyl-1-((R)-pyrrolidin-2-yl)propan-2-yl)-3-((R)-2-(4-methyloxazol-2-yl)pyrrolidine-1-carbonyl)-5-(oxazol-2-yl)benzamide] |
